Results reported in patent publication US11160277B2, “Use of cholinium lysinate as an herbicide” (priority 2019, dated 2021).
“Also recorded” adds a separate entry of the source.

Key:
Arabidopsis thaliana = assay: Arabidopsis seedling root architecture screen on vertical agar plates; type: in vivo; conditions: for lateral root initiation (effect of treatment) / primary root growth (effect of treatment): 6 days of treatment, concentrations tested
From the text: An initial dose-responded for Arabidopsis seeding growth across multiple orders of magnitude in concentration is developed, and then examined sub-lethal concentrations in greater detail. Plants are germinated and grown vertically on transparent agar plates until the emergence of the first set of true leaves (6-8 days), transferred to fresh plates with or without the compound of interest, and imaged at 0 and 6 days after transfer. Finally, a semi-automated image analysis method is used to score primary root growth and total lateral root number, common phenotypes in plant developmental biology (Lobet, Pagès, and Draye 2011).
Arabidopsis ecotype Col-0 seeds are obtained from the Arabidopsis Biological Resource Center (ABRC). Seeds are surface sterilized by a brief wash in 70% (v/v) ethanol followed by incubation in 30% (v/v) sodium hypochlorite (commercial bleach) for 15 minutes. Seeds are subsequently rinsed 5 times in sterile water, and sown on ½ Murashige and Skoog (MS) agar. Seeds are stratified (2 days, 4° C. in the dark) before transfer to a growth chamber under a 10 h light:14 h dark (22° C.). Following germination, plants are grown until the appearance of the first set of true leaves (˜6 days) prior to transfer to fresh test or control agar. […] The change in root length is determined from the primary root length at transfer subtracted from the primary root length after 6 days of treatment.
(§1) Rhizobacterial biomass for root inoculation experiments is generated by cultivating individual isolates at 30° C. in LB supplemented with 1% (w/v) dextrose, shaking at 200 RPM. Overnight cultures are diluted to an OD600 of 0.1 in fresh media then grown under the same conditions to an OD600 of 0.7. Pellets are centrifuged (2000 r.c.f.) for 10 min at room temperature, then resuspended in 1/10 volume sterile water. Plants are inoculated by momentarily submerging their roots into cell resuspensions, or in sterile water for mock-inoculated controls. Plants are transferred to fresh ½ MS agar plates immediately post-inoculation and grown as before.
(§2) D-limonene, α-pinene, protocatechuate, p-coumarate, [C2C1im][OAc], or [Ch][Lys] are dissolved in molten ½ MS media where indicated. 1.2 M stock solutions of p-coumarate and 1.5 M stock solutions of protocatechuate are prepared in dimethylsulfoxide (DMSO) and ethanol, respectively, before their addition to growth media.
(§3) Plants are lit from the sides and photographed using a Canon 550D camera; images are saved as JPEG files for further analysis. The contrast is adjusted to maximize root visibility, but any adjustments are applied uniformly. Root growth is quantified using ImageJ (Schneider, Rasband, and Eliceiri 2012) with the SmartRoot plugin using default parameters (Lobet, Pages, and Draye 2011).

A. rhizogenes = assay: Microbial growth in liquid culture (A. rhizogenes); type: cell-based; conditions: for microbial growth with the compound as sole carbon source: M9 minimal media
Experimental: (§4) Whether inoculation with rhizobacteria alters the effect of the test compounds on plant growth is next tested. Two microbes, A. rhizogenes and Acinetobacter sp.
Whether either [Ch][Lys] or [C2C1im][OAc] has an effect on A. rhizogenes is tested by growing a liquid culture in minimal media (M9, which contains only salts and nitrogen) supplemented with either 0.1 mM [Ch][Lys], 1 mM [C2C1im][OAc], or 1% w/v dextrose as the sole carbon source is tested.
Choline, for instance, can be used as a precursor to the compatible solute glycine betaine in a process dependent on two genes, betA and betB, both of which are present in the A. rhizogenes genome (Levy et al. 2018). Glycine betaine is additionally known to improve the salt tolerance of both plants and microbes (Riou and Le Rudulier 1990; Hayashi et al. 1997). Therefore, whether [Ch][Lys] improves the salt tolerance of A. rhizogenes by growing the microbe in M9 supplemented with 1% w/v dextrose and either 0.1 mM [Ch][Lys], 400 mM NaCl, or both, is tested.
(§5) Microbial strains are maintained in glycerol stocks stored at −80° C. Media used are Lysogeny broth (LB: 10 g/L tryptone, 5 g/L yeast extract, and 5 g/L NaCl) or M9 minimal media (M9: 6.8 g/L Na2HPO4, 3 g/L KH2PO4, 1 g/L NH4Cl, 0.5 g/L NaCl, 0.12 g/L MgSO4) as indicated. Liquid pre-cultures are inoculated with colonies from LB agar plates and grown overnight at 30° C., shaking at 200 RPM. Precultures are back-diluted to an OD600 0.1 into fresh media and grown until OD600 0.6, and then 2 μL per well is used to inoculate 96 well microtiter plates in a total volume of 100 μL of the media and treatment conditions indicated. Optical density is tracked at a wavelength of 600 nm using a Synergy 4 plate reader (BioTek Instruments) kept at 30° C. and shaking on “high” setting.

Acinetobacter sp. 01 = assay: Microbial growth in liquid culture (Acinetobacter sp. 01); type: cell-based
Experimental: as §4, §5

Sorghum bicolor = assay: Sorghum seedling root growth on vertical agar plates; type: in vivo; conditions: for effect on seedlings transferred to solid media: similar results as Arabidopsis; for mean crown root growth / mean lateral root growth: 5 mM [Ch][Lys], 8 days
From the text: Arabidopsis is useful as a model system because of its fast generation time, ease of handling, and the availability of relevant genetic tools. The effects of these treatments on a second plant species of economic relevance are compared. Sorghum is selected, since it is both evolutionarily distant from Arabidopsis, but also an agronomically important plant for food, forage, and biomass, and is cultivated over 3,300,000 ha in the United States and 40,000,000 ha globally (Langholtz, Stokes B. J., and Eaton 2016).
Sorghum cultivar BTx623 seeds are a kind gift from Dr. Jeff Dahlberg, UCANR. Seeds are surface sterilized by rinsing 5 times in sterile water, briefly washing in 70% (v/v) ethanol+0.01% (v/v) Triton-X 100 and incubating in bleach+0.01% (v/v) Triton-X 100 on a shaker for 20 minutes. They are then rinsed in sterile water a further 3 times, sown on plates, and grown as above (although without stratification).
as §1, §2, §3

Arabidopsis roots = conditions: 0.1 mM
Experimental: FIG. 4G. […] Representative fluorescent microscopy images of Arabidopsis roots following propidium iodide staining. I: Control; II: 0.1 mM [Ch][Lys]; III: inoculation with A. rhizogenes; IV: 0.1 mM [Ch][Lys] and A. rhizogenes. The scale bar=200 μm.
Seedlings are inoculated or chemically treated as previously described. After the treatment period roots are gently washed in sterile water and the cell walls are stained for 1 min in […] propidium iodide (PI, Sigma), then briefly rinsed in sterile water. Cellular morphology is determined using a Zeiss LSM 710 confocal microscope with PI fluorescence emission at 550-680 nm and 488 nm excitation.

[1] = system: mammals, fish, and microbes; conditions: reported (Sun et al. 2014); cited from earlier work
[2] = 1 mM protocatechuate, inoculated with A. rhizogenes
[3] = 1 mM protocatechuate, uninoculated
[4] = 0.1 mM [Ch][Lys], inoculated with A. rhizogenes, 6 days
[5] = 0.1 mM [Ch][Lys], uninoculated, 6 days

C=C(C)C1CC=C(C)CC1 [D-limonene]
plants showing complete inhibition of primary root growth (Arabidopsis thaliana; regardless of the concentration tested): at least 20%
lateral root growth (Arabidopsis thaliana; uninoculated, 6 days): unaffected
changes in root architecture / dose-response (Arabidopsis thaliana; uninoculated, between and within plates): inconsistent changes in root architecture; also recorded: no dose-response relationship was obvious

[Cl-].[Na+] [NaCl, reference compound]
A. rhizogenes growth rate (A. rhizogenes; M9 + 1% w/v dextrose, 400 mM NaCl): reduces the A. rhizogenes growth rate

CCn1cc[n+](C)c1 [[C2C1im][OAc], 1-ethyl-3-methylimidazolium acetate]
effect on growth of the microbe (A. rhizogenes; 1 mM): does not alter the growth
microbial growth with the compound as sole carbon source (A. rhizogenes; 1 mM [C2C1im][OAc]): Neither IL allows microbial growth
lateral root initiation, effect of inoculation (Arabidopsis thaliana; 1 mM [C2C1im][OAc], inoculated with A. rhizogenes): no effect
mean primary root growth (Arabidopsis thaliana; 1 mM [C2C1im][OAc], inoculated with A. rhizogenes, 6 days): 2.912 cm
mean primary root growth (Arabidopsis thaliana; 1 mM [C2C1im][OAc], inoculated with Acinetobacter sp. 01, 6 days): 4.011 cm
mean primary root growth (Arabidopsis thaliana; 1 mM [C2C1im][OAc], uninoculated, 6 days): 1.904 cm
root growth (Arabidopsis thaliana; 1 mM, uninoculated): overall reduction in root growth
lateral root initiation (effect of treatment) (Arabidopsis thaliana; uninoculated): dose dependent reduction
primary root growth (effect of treatment) (Arabidopsis thaliana; uninoculated): dose dependent reduction
effect on growth of the microbe (Acinetobacter sp. 01; 1 mM): does not alter the growth

O=C(O)/C=C/c1ccc(O)cc1 [p-coumarate]
lateral root initiation (effect of treatment) (Arabidopsis thaliana; uninoculated): dose dependent reduction
primary root growth (effect of treatment) (Arabidopsis thaliana; uninoculated): dose dependent reduction

O=C(O)c1ccc(O)c(O)c1 [protocatechuate]
primary root curvature, median skew to the right from that of untreated plants (Arabidopsis thaliana; 1 mM): 200
mean lateral root number (lateral root initiation) (Arabidopsis thaliana; [2]): 2.214
mean primary root growth (Arabidopsis thaliana; [2]): 0.631 cm
mean lateral root number (lateral root initiation) (Arabidopsis thaliana; [3]): 7.989
mean primary root growth (Arabidopsis thaliana; [3]): 2.293 cm
lateral root initiation (Arabidopsis thaliana; 1 mM, uninoculated, 6 days): increase lateral root initiation
lateral root growth (Arabidopsis thaliana; uninoculated, 6 days): enhanced
primary root growth (effect of treatment) (Arabidopsis thaliana; uninoculated): reduce primary root growth at all concentrations tested

CC1=CCC2CC1C2(C)C (stereo not drawn) [α-pinene]
lateral root initiation (effect of treatment) (Arabidopsis thaliana; uninoculated): dose dependent reduction
primary root growth (effect of treatment) (Arabidopsis thaliana; uninoculated): dose dependent reduction

cholinium lysinate [[Ch][Lys]]
concentration tolerated by the microbe (A. rhizogenes; A. rhizogenes): 10 mM
A. rhizogenes growth rate under NaCl (A. rhizogenes; M9 + 1% w/v dextrose, 400 mM NaCl plus 0.1 mM [Ch][Lys]): partially rescued
microbial growth with the compound as sole carbon source (A. rhizogenes; 0.1 mM [Ch][Lys]): Neither IL allows microbial growth
effect on seedlings transferred to solid media (Sorghum bicolor; 0.1 mM): reduced root growth
mean crown root growth (Sorghum bicolor; inoculated with A. rhizogenes): 5.028 cm
mean lateral root growth (Sorghum bicolor; inoculated with A. rhizogenes): 1.051 cm
mean crown root growth (Sorghum bicolor; uninoculated): 3.267 cm
mean lateral root growth (Sorghum bicolor; uninoculated): 0.464 cm
branching lateral roots and crown root growth (Sorghum bicolor; 5 mM, over 8 days): almost completely inhibit
effect on seedlings transferred to solid media (Sorghum bicolor; 5 mM): complete chlorosis and plant death
concentration that reduces the root growth (Sorghum bicolor; S. bicolor): At least 5 mM
root cell morphology phenotype caused by [Ch][Lys] (Arabidopsis roots; A. rhizogenes treated roots): abolished
root cell morphology (Arabidopsis roots; uninoculated): irregular expansion of epidermal cells of the root apical meristem (RAM) and stimulates formation of ectopic root hairs
toxicity to mammals, fish, and microbes [1]: low toxicity
effect on seedlings transferred to solid media (Arabidopsis thaliana; 0.1 mM): reduced root growth
mean lateral root number (lateral root initiation) (Arabidopsis thaliana; [4]): 4.889
mean primary root growth (Arabidopsis thaliana; [4]): 2.241 cm
root growth versus uninoculated, [Ch][Lys]-treated controls (Arabidopsis thaliana; 0.1 mM [Ch][Lys], inoculated with Pool A): do not differ significantly
mean primary root growth (Arabidopsis thaliana; 0.1 mM [Ch][Lys], inoculated with Pool B): 2.072 cm
mean lateral root number (lateral root initiation) (Arabidopsis thaliana; [5]): 7.069
mean primary root growth (Arabidopsis thaliana; [5]): 0.858 cm
primary root growth (Arabidopsis thaliana; 0.1 mM, uninoculated): significantly inhibit
lateral root initiation (Arabidopsis thaliana; 0.1 mM, uninoculated, 6 days): increase lateral root initiation
effect on seedlings transferred to solid media (Arabidopsis thaliana; 5 mM): complete chlorosis and plant death
concentration that reduces the root growth (Arabidopsis thaliana; A. thaliana): At least 0.1 mM
concentration sufficient to completely inhibit primary root growth (Arabidopsis thaliana; Arabidopsis): 0.1 mM
root growth, effect of inoculation (Arabidopsis thaliana; [Ch][Lys] treatment, inoculated with Acinetobacter sp. 01): no significant effect
application rate equivalent to the concentration that inhibits primary root growth (Arabidopsis thaliana; equates to 0.1 mM): 104 g/ha2
estimated appropriate application rate as herbicide (Arabidopsis thaliana; estimate): 100-500 g/ha
primary root growth (effect of treatment) (Arabidopsis thaliana; uninoculated): reduce primary root growth at all concentrations tested
concentration tolerated by the microbe (Acinetobacter sp. 01; Acinetobacter sp. 01): 10 mM
